Experimental data published in patent US9359451B2, “Methods and compositions for treating trauma-hemorrhage using estrogen and derivatives thereof” (THE UAB RESEARCH FOUNDATION, priority 2012, dated 2016).
Entries after “also recorded” stand apart in the source; their conditions may differ.

Experiments:
[1] = test system: iNOS, nitrotyrosine, COX-2, Bax and Bcl-2; test: Spinal cord injury: immunohistochemical localization of nitrotyrosine, iNOS, COX-2, Bax and Bcl-2; format: in vivo, mouse; conditions: 24 h after SCI; ICI 182,780: co-administered with 17β-estradiol
Method: Mice were anaesthetized using chloral hydrate (400 mg/kg body weight) (Genovese 2006). A longitudinal incision was made on the midline of the back, exposing the paravertebral muscles. These muscles were dissected away exposing T5-T8 vertebrae. The spinal cord was exposed via a four-level T6-T7 laminectomy and SCI was produced by extradural compression using an aneurysm clip with a closing force of 24 g. Following surgery, 1 ml of saline was administered subcutaneously in order to replace the blood volume lost during surgery. During the surgery and recovery from anesthesia, the mice were placed on a warm heating pad and covered with a warm towel. […] Food and water were provided to the mice ad libitum. During this time period, the animals' bladders were manually voided twice a day until the mice were able to regain normal bladder function. In all injured groups, the spinal cord was compressed for 1 min. Sham-injured animals were only subjected to laminectomy. Mice were randomly allocated into the following groups: (i) saline+SCI group, mice received saline subcutaneously and were subjected to SCI (n=40); […] (v) saline+sham group, mice were subjected to the surgical procedures as above group except that the aneurysm clip was not applied (n=40); […] In the experiments regarding the motor score, the animals from all the experimental groups were observed and treated daily for 9 days after SCI. At different time points (see FIG. 30), the mice (n=10 from each group for each of the 3 time points) were sacrificed in order to evaluate the various parameters as described below. […] After deparaffinization, endogenous peroxidase was quenched with 0.3% (v/v) hydrogen peroxide in 60% (v/v) methanol for 30 min. […] Non-specific adsorption was minimized by incubating the section in 2% (v/v) normal goat serum in PBS for 20 min. Endogenous biotin or avidin binding sites were blocked by sequential incubation for 15 min with biotin and avidin (DBA), respectively. […] Sections were washed with PBS, and incubated with secondary antibody. Specific labeling was detected with a biotin-conjugated goat anti-rabbit IgG and avidin-biotin peroxidase complex (DBA) and counterstained with nuclear fast red. To verify the binding specificity for nitrotyrosine, iNOS, COX-2, Bax, and Bcl-2, some sections were also incubated with only the primary antibody (no secondary) or with only the secondary antibody (no primary). […] Immunocytochemistry photographs (n=5) were assessed by densitometry as previously described (Shea 1994) by using Imaging Densitometer (AxioVision, Zeiss, Milan, Italy) and a computer program.

[2] = test system: TNF-α, IL-1β, IL-6 and MCP-1 mRNA; test: Spinal cord injury: quantitative real time PCR of cytokines and chemokines; format: in vivo, mouse; conditions: 24 h after SCI; ICI 182,780: co-administered with 17β-estradiol
Method: Mice were anaesthetized using chloral hydrate (400 mg/kg body weight) (Genovese 2006). A longitudinal incision was made on the midline of the back, exposing the paravertebral muscles. These muscles were dissected away exposing T5-T8 vertebrae. The spinal cord was exposed via a four-level T6-T7 laminectomy and SCI was produced by extradural compression using an aneurysm clip with a closing force of 24 g. Following surgery, 1 ml of saline was administered subcutaneously in order to replace the blood volume lost during surgery. During the surgery and recovery from anesthesia, the mice were placed on a warm heating pad and covered with a warm towel. The mice were singly housed in a temperature-controlled room at 27° C. and survival was measured over a period of 10 days. Food and water were provided to the mice ad libitum. During this time period, the animals' bladders were manually voided twice a day until the mice were able to regain normal bladder function. In all injured groups, the spinal cord was compressed for 1 min. Sham-injured animals were only subjected to laminectomy.
In the experiments regarding the motor score, the animals from all the experimental groups were observed and treated daily for 9 days after SCI. At different time points (see FIG. 30), the mice (n=10 from each group for each of the 3 time points) were sacrificed in order to evaluate the various parameters as described below.
A segment of spinal cord (320±124 mg) encompassing lesion epicentre was homogenized in a solution of Tri-reagent (Sigma®, Germany) according to the manufacturer's instructions. Total cellular RNA was isolated from the aqueous phase then the levels of […], TNF-α, MCP-1, IL-6 gene products were determined by Real Time PCR. The amount of each PCR product of gene target was normalized to Glyceraldehyde-3-phosphate dehydrogenase (GAPDH). The RNA extracted from spinal cord of individual mice was reverse transcripted into first strand cDNA with Random Hexamers and purified Avian Myeloblastosis Virus Reverse Transcriptase (Takara, Japan) in […] of reaction after a DNAse treatment and stored at −80° C. until use. Primers pair for each cytokine was designed using the software Oligo (Molecular Biology Insights, Cascade, Colo., USA). The PCR reactions were performed using the following cycle conditions: a denaturation step for 15 minutes at 95° C. and 40 cycles of 30 seconds denaturation at 94° C., 30 seconds annealing (TNF-á 61° C., IL-6 54° C., IL-1β 61° C., MCP-1 54° C., GADPH 56° C.), 15 sec at 72° C. and 7 minutes of final extension at 72° C. The PCR products were visualized by electrophoresis on agarose gel 2% stained by ethidium bromide. The purified PCR products were cloned into a plasmid vector, transformed into the E. coli TOP 10 (Invitrogen) and purified with Turbo Kit (QBIOgene, CA, USA). The recombinant plasmid was linearized upstream the target sequence using the restriction endonuclease PmeI (Fermentas, Canada). Tenfold dilutions of recombinant plasmid from 10^9 copies down to 10^1 copies were used as standards. The real time PCR assay was developed and evaluated on the Rotor-Gene 3000 system (Corbett Research, Australia). Reaction was carried out in a final volume of 25 μl containing 1× of SYBR PREMIX Ex Taq Takara, 200 nM each forward and reverse primers, 1× of Rox References Dye and 2 μl of cDNA. Cycling parameters were the following: 10 minutes at 95° C. for polymerase activation followed by 40 cycles of 15 seconds at 95° C., 15 seconds annealing (TNF-α 61° C., […], IL-6 54° C., IL-1β 61° C., MCP-1 54° C., GADPH 56° C.) 20 sec at 72° C. The signal was acquired on the FAM channel (multichannel machine) (source, 470 nm; detector, 510 nm; gain set to 5) with the fluorescence reading taken at the end of each 72° C. step. A melt step was added after a cycling run performed with the same parameters of the SYBR Green assay. […]

Compound	immunohistochemical expression of Bax [1]	immunohistochemical expression of Bcl-2 [1]	immunostaining for COX-2 [1]	immunostaining for iNOS [1]	immunostaining for nitrotyrosine [1]	IL-1β mRNA levels in spinal cord [2]	IL-6 mRNA levels in spinal cord [2]	MCP-1 mRNA levels in spinal cord [2]	TNF-α mRNA levels in spinal cord [2]
C[C@]12CC[C@@H]3c4ccc(O)cc4CC[C@H]3[C@@H]1CC[C@@H]2O [17β-estradiol]	reduced the degree of positive staining for Bax; also recorded: significantly inhibited the SCI-induced increase in Bax expression	attenuated the loss of positive staining for Bcl-2; also recorded: significantly prevents the loss of Bcl-2 expression	reduced the degree of positive staining for COX-2; also recorded: marked reduction in the immunostaining for COX-2	reduced the degree of positive staining for iNOS; also recorded: marked reduction in the immunostaining	reduced the degree of positive staining for nitrotyrosine; also recorded: marked reduction in the immunostaining	significantly reduced	significantly reduced	significantly reduced	significantly reduced
C[C@]12CC[C@@H]3c4ccc(O)cc4C[C@@H](CCCCCCCCC[S+]([O-])CCCC(F)(F)C(F)(F)F)[C@H]3[C@@H]1CC[C@@H]2O (stereo partly drawn) [ICI 182,780]	significantly blocked the effect of the 17β-estradiol	significantly blocked the effect of the 17β-estradiol	significantly blocked the effect of the 17β-estradiol	significantly blocked the effect of the 17β-estradiol	significantly blocked the effect of the 17β-estradiol	significantly blocked the effect of the 17β-estradiol	significantly blocked the effect of the 17β-estradiol	significantly blocked the effect of the 17β-estradiol	significantly blocked the effect of the 17β-estradiol
